Test system: 422866-222-R5-J1-PDC spheroids with HUVEC/MSC, viability
Assay: Anticancer human tumor 422866-222-R5-J1-PDC patient-derived pancreatic adenocarcinoma cell line growth inhibition [GQUAD]
Conditions: for IC50: curve of first compound; for viability, T/C: stronger effect = lower value; active means viability on the fitted dose curve at most 10% of control; inactive means the rest
From the text: DNA G-quadruplex Stabilizer Agents in Combinations in Complex Spheroids
A high-throughput screen of multi-cell type tumor spheroids was designed to identify active combinations of DNA G-quadruplex stabilizer agents and targeted small molecules. Complex spheroids include a stromal component modeled by human endothelial cells (HUVEC) and fibroblasts modeled by human mesenchymal stem cells (MSCs). The concentration ranges selected for each drug and investigational agent were based upon clinically achievable concentrations if the clinical Cmax of the agent was known.
Compounds. The drugs and investigational agents: pidnarulex (CX-5461; NSC782164), APTO-253 (NSC789042), BRACO-19 (NSC847499), peposertib (NSC802822), ceralasertib (NSC780249), elimusertib (NSC800525), camonsertib (NSC841442), AZD-1390 (NSC803789), olaparib (NSC753686), talazoparib (NSC767125), ART-558 (NSC835418), sotorasib (NSC818433), MRTX-1133 (NSC836407), SN-38 (NSC673596), topotecan (NSC609699), etoposide (NSC141540), doxorubicin (NSC123127), gemcitabine (NSC613327), 5-fluorouracil (NSC19893), paclitaxel (NSC125973), vemurafenib (NSC761431), panobinostat (NSC761190), R-306465 (JNJ-16241199; NSC773264), adavosertib (NSC754352), TP-3654 (NSC805149), carboplatin (NSC241240), KSQ-4279 (NSC840948), and staurosporine (NSC755774) were obtained from the National Cancer Institute (NCI) Developmental Therapeutics Program Chemical Repository (34). The FDA-approved anticancer drug set is available from the NCI Developmental Therapeutics Program. […] The stock solutions were prepared in dimethyl sulfoxide (DMSO, Sigma-Aldrich, St. Louis, MO, cat. D2650) at 800-fold the tested concentration and stored at -70 degrees C prior to their use. All drugs and investigational agents were tested over a range starting from a high concentration at or near the clinical Cmax and decreasing in half-log increments. If the clinical Cmax for an agent had not been determined, the highest concentration tested was 10 microM.
2.3 Cell Culture. All cells were maintained in an incubator at 37 degrees C and 5% CO2 with 95% humidity. The PDC lines were cultured according to standard operating procedures established by the NCI PDMR. All PDCs were thawed and cultured in Matrigel-coated flasks prepared with a working solution of 1X Ham's F-12 nutrient mix, without supplementation (Invitrogen, cat. 11765054), 100 U/mL penicillin-streptomycin (Invitrogen, cat. 15140122), and 2.5% Matrigel (Corning Inc., cat. 354248) for the first three passages. The 857933-349-R-J2-PDC line was cultured in 6C/Colon 1B media, which includes advanced DMEM/F-12 (Thermo Fisher Scientific, cat. 12634028), 10 mM HEPES (Thermo Fisher Scientific, cat. 15630080), 1X GlutaMAX supplement (Thermo Fisher Scientific, cat. 35050061), 0.1 mg/mL primocin (InvivoGen, cat. ant-pm-2), 10% defined fetal bovine serum, heat inactivated (HyClone Laboratories Inc., cat. SH30070.03HI), 50% L-WRN conditioned media (ATCC, cat. CRL-3276), 1.25 mM N-Acetyl-L-cysteine (Sigma-Aldrich, cat. A9165), 10 mM nicotinamide (Sigma-Aldrich, cat. N0636), 1X B-27 supplement (Thermo Fisher Scientific, cat. 17504044), 1X N-2 supplement (Thermo Fisher Scientific, cat. 17502048), 10 microM Y-27632 dihydrochloride (Tocris Bioscience, cat. 1254), and 50 ng/mL human EGF recombinant protein (Thermo Fisher Scientific, cat. PHG0311). The 485176-168-R4-J1-PDC line was cultured in Panc media, which includes all 6C/Colon 1B media components plus 100 ng/mL human FGF-10 (Thermo Fisher Scientific, cat. 100-26), 500 nM SB-431542 (Selleckchem, cat. S1067), and gastrin (Tocris, cat. 3006).
[…]

[1] = second compound 0.0316 µM, first compound 0.0316 µM
[2] = second compound 0.0316 µM, first compound 0.316 µM
[3] = second compound 0.1 µM, first compound 0.0316 µM
[4] = second compound 0.1 µM, first compound 0.316 µM
[5] = second compound 0.316 µM, first compound 0.0316 µM
[6] = second compound 0.316 µM, first compound 0.316 µM
[7] = second compound 1 µM, first compound 0.0316 µM
[8] = second compound 1 µM, first compound 0.316 µM
[9] = second compound 3.16 µM, first compound 0.0316 µM
[10] = second compound 3.16 µM, first compound 0.316 µM
[11] = second compound 10 µM, first compound 0.0316 µM
[12] = second compound 10 µM, first compound 0.316 µM
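Further: spheroids exposed to compounds for seven days before reading.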
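Wherever viability, T/C is given: percent viability relative to DMSO vehicle control taken as 100%.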

Cc1[nH]c2ccccc2c1CCNCc1ccc(/C=C/C(=O)NO)cc1 + Cc1[nH]c2ccc(F)cc2c1-c1nc2c3cccnc3c3ncccc3c2[nH]1
inactive: viability, T/C (second compound 0.0316 µM, first compound 0.000999 µM) 113% | viability, T/C (second compound 0.0316 µM, first compound 0.00316 µM) 92.7% | viability, T/C (second compound 0.0316 µM, first compound 0.00999 µM) 110% | viability, T/C [1] 98.6% | viability, T/C (second compound 0.0316 µM, first compound 0.0999 µM) 101% | viability, T/C [2] 102% | viability, T/C (second compound 0.1 µM, first compound 0.000999 µM) 127% | viability, T/C (second compound 0.1 µM, first compound 0.00316 µM) 108% | viability, T/C (second compound 0.1 µM, first compound 0.00999 µM) 102% | viability, T/C [3] 93% | viability, T/C (second compound 0.1 µM, first compound 0.0999 µM) 111% | viability, T/C [4] 94% | viability, T/C (second compound 0.316 µM, first compound 0.000999 µM) 96.6% | viability, T/C (second compound 0.316 µM, first compound 0.00316 µM) 97.2% | viability, T/C (second compound 0.316 µM, first compound 0.00999 µM) 121% | viability, T/C [5] 105% | viability, T/C (second compound 0.316 µM, first compound 0.0999 µM) 115% | viability, T/C [6] 98.9% | viability, T/C (second compound 1 µM, first compound 0.000999 µM) 74.5% | viability, T/C (second compound 1 µM, first compound 0.00316 µM) 93.9% | viability, T/C (second compound 1 µM, first compound 0.00999 µM) 114% | viability, T/C [7] 112% | viability, T/C (second compound 1 µM, first compound 0.0999 µM) 103% | viability, T/C [8] 111% | viability, T/C (second compound 3.16 µM, first compound 0.000999 µM) 64.2% | viability, T/C (second compound 3.16 µM, first compound 0.00316 µM) 73.7% | viability, T/C (second compound 3.16 µM, first compound 0.00999 µM) 68.2% | viability, T/C [9] 73.9% | viability, T/C (second compound 3.16 µM, first compound 0.0999 µM) 75.2% | viability, T/C [10] 78.9% | viability, T/C (second compound 10 µM, first compound 0.000999 µM) 52.1% | viability, T/C (second compound 10 µM, first compound 0.00316 µM) 66.2% | viability, T/C (second compound 10 µM, first compound 0.00999 µM) 64.7% | viability, T/C [11] 65.7% | viability, T/C (second compound 10 µM, first compound 0.0999 µM) 61.1% | viability, T/C [12] 67.6%
> 316 nM: IC50 (second compound 0.0316 µM) | IC50 (second compound 0.1 µM) | IC50 (second compound 0.316 µM) | IC50 (second compound 1 µM) | IC50 (second compound 3.16 µM) | IC50 (second compound 10 µM)

Nc1ccn(C2OC(CO)C(O)C2(F)F)c(=O)n1 (centres undefined) + Cc1[nH]c2ccc(F)cc2c1-c1nc2c3cccnc3c3ncccc3c2[nH]1
1200 nM: IC50 (second compound 0.316 µM)
347 nM: IC50 (second compound 3.16 µM)
504 nM: IC50 (second compound 1 µM)
490 nM: IC50 (second compound 10 µM)
inactive: viability, T/C [1] 85.1% | viability, T/C (second compound 0.0316 µM, first compound 0.1 µM) 75.8% | viability, T/C [2] 63.3% | viability, T/C (second compound 0.0316 µM, first compound 1 µM) 46% | viability, T/C (second compound 0.0316 µM, first compound 3.16 µM) 41.1% | viability, T/C (second compound 0.0316 µM, first compound 10 µM) 41.8% | viability, T/C [3] 83.8% | viability, T/C (second compound 0.1 µM, first compound 0.1 µM) 82.2% | viability, T/C [4] 52.5% | viability, T/C (second compound 0.1 µM, first compound 1 µM) 42.2% | viability, T/C (second compound 0.1 µM, first compound 3.16 µM) 43.7% | viability, T/C (second compound 0.1 µM, first compound 10 µM) 42.5% | viability, T/C [5] 97.8% | viability, T/C (second compound 0.316 µM, first compound 0.1 µM) 80.9% | viability, T/C [6] 67.8% | viability, T/C (second compound 0.316 µM, first compound 1 µM) 49.9% | viability, T/C (second compound 0.316 µM, first compound 3.16 µM) 42% | viability, T/C (second compound 0.316 µM, first compound 10 µM) 35.2% | viability, T/C [7] 91.5% | viability, T/C (second compound 1 µM, first compound 0.1 µM) 75.9% | viability, T/C [8] 53.2% | viability, T/C (second compound 1 µM, first compound 1 µM) 45.1% | viability, T/C (second compound 1 µM, first compound 3.16 µM) 45.2% | viability, T/C (second compound 1 µM, first compound 10 µM) 43.3% | viability, T/C [9] 83.4% | viability, T/C (second compound 3.16 µM, first compound 0.1 µM) 62.3% | viability, T/C [10] 52.6% | viability, T/C (second compound 3.16 µM, first compound 1 µM) 42.3% | viability, T/C (second compound 3.16 µM, first compound 3.16 µM) 42.2% | viability, T/C (second compound 3.16 µM, first compound 10 µM) 42.9% | viability, T/C [11] 72.3% | viability, T/C (second compound 10 µM, first compound 0.1 µM) 67.6% | viability, T/C [12] 55.4% | viability, T/C (second compound 10 µM, first compound 1 µM) 39.9% | viability, T/C (second compound 10 µM, first compound 3.16 µM) 43% | viability, T/C (second compound 10 µM, first compound 10 µM) 41.2%
427 nM: IC50 (second compound 0.1 µM)
800 nM: IC50 (second compound 0.0316 µM)

Source: PubChem BioAssay AID2060511 (Molecular Pharmacology Branch, DTP, NCI, 2025)
